Key:
[1] = Inhibition of rabbit erythrocyte SAHase using S-adenosyl-L-homocysteine as substrate assessed as L-homocysteine formation incubated for 5 mins prior to substrate addition measured after 1 hr; parameters: species or system Oryctolagus cuniculus
[2] = Cytotoxicity against human MRC5 cells; format: cell-based
[3] = system: Pichinde virus; assay: Antiviral activity against Pichinde virus infected in African green monkey Vero 76 cells; format: functional, organism-based
[4] = Cytotoxicity against African green monkey Vero E6 cells; format: cell-based; conditions: chlorocebus sabaeus
[5] = system: Human betaherpesvirus 5; assay: Antiviral activity against human cytomegalovirus infected in HFF cells; format: functional, organism-based; conditions: Human betaherpesvirus 5, HFF
[6] = system: Measles morbillivirus; assay: Antiviral activity against Measles virus infected in human MRC5 cells; format: functional, organism-based
[7] = Selectivity index, ratio of CC50 for human MRC5 cells to IC50 for Measles virus; format: functional
[8] = Cytotoxicity against HEK293 cells; format: cell-based; conditions: human
[9] = Selectivity index, ratio of CC50 for HEK293 cells to IC50 for Human papillomavirus; format: functional
[10] = system: Rift Valley fever virus; assay: Antiviral activity against Rift Valley fever virus infected in African green monkey Vero 76 cells; format: functional, organism-based
[11] = Selectivity index, ratio of CC50 for African green monkey Vero E6 cells to IC50 for Monkeypox virus; format: functional
[12] = system: Tacaribe virus; assay: Antiviral activity against Tacaribe virus infected in African green monkey Vero 76 cells; format: functional, organism-based; conditions: Mammarenavirus tacaribeense
[13] = Selectivity index, ratio of CC50 for HFF cells to IC50 for Vaccinia virus; format: functional
[14] = system: Vaccinia virus; assay: Antiviral activity against Vaccinia virus infected in HFF cells; format: functional, organism-based; conditions: Orthopoxvirus vaccinia
[15] = system: Human papillomavirus; assay: Antiviral activity against Human papillomavirus infected in HEK293 cells; format: functional, organism-based
[16] = system: Monkeypox virus; assay: Antiviral activity against Monkeypox virus infected in African green monkey Vero E6 cells; format: functional, organism-based
[17] = Cytotoxicity against African green monkey Vero cells; format: cell-based; conditions: chlorocebus sabaeus
[18] = Cytotoxicity against African green monkey Vero 76 cells; format: cell-based; conditions: chlorocebus sabaeus
[19] = Cytotoxicity against HFF cells; format: cell-based; conditions: human
[20] = Selectivity index, ratio of CC50 for African green monkey Vero cells to IC50 for Tacaribe virus; format: functional
[21] = Selectivity index, ratio of CC50 for African green monkey Vero 76 cells to IC50 for Rift Valley fever virus; format: functional
[22] = Selectivity index, ratio of CC50 for African green monkey Vero cells to IC50 for Pichinde virus; format: functional
[23] = Selectivity index, ratio of CC50 for HFF cells to IC50 for human cytomegalovirus; format: functional
[24] = system: Hepatitis B virus; assay: Antiviral activity against HBV; format: functional, organism-based

| Structure (SMILES) | IC50 [1] [µM] | CC50 [2] [µM] | IC50 [3] [µM] | CC50 [4] [µM] | IC50 [5] [µM] | IC50 [6] [µM] | Ratio CC50/IC50 [7] | CC50 [8] [µM] | IC50 [10] [µM] | Ratio CC50/IC50 [11] | IC50 [12] [µM] | Ratio CC50/IC50 [13] | IC50 [14] [µM] | IC50 [15] [µM] | IC50 [16] [µM] | CC50 [17] [µM] | CC50 [18] [µM] | CC50 [19] [µM] | Ratio CC50/IC50 [20] | Ratio CC50/IC50 [21] | also measured |
| --- | --- | --- | --- | --- | --- | --- | --- | --- | --- | --- | --- | --- | --- | --- | --- | --- | --- | --- | --- | --- | --- |
| Nc1nccc2c1ncn2[C@@H]1C=C(CO)[C@@H](O)[C@H]1O | 0.0093 | – | – | – | – | – | – | – | – | – | – | – | – | – | – | – | – | – | – | – | – |
| Nc1ncc(F)c2c1ncn2[C@@H]1C[C@H](O)[C@@H](O)[C@H]1O | 0.0058 | > 100 | > 300 | > 100 | > 300 | < 0.32 | >313 | > 100 | > 300 | >313 | > 300 | >2 | 142 | 23.9 | < 0.32 | > 300 | > 300 | > 300 | – | – | Ratio CC50/IC50 [9]: >4 |
| Nc1ncc(F)c2c1ncn2[C@@H]1C[C@H](CO)[C@@H](O)[C@H]1O | 0.029 | > 100 | 24 | > 100 | > 60 | < 0.32 | >313 | > 100 | 56 | >313 | 14 | >6 | 48 | > 100 | < 0.32 | 159 | > 300 | > 178 | 11 | >6.3 | Ratio CC50/IC50 [22]: 7; Ratio CC50/IC50 [23]: <3 |
| Nc1ncc(F)c2c1ncn2[C@@H]1C[C@H](CCO)[C@@H](O)[C@H]1O | 0.009 | > 100 | 30 | > 100 | 1.49 | < 0.32 | >313 | > 100 | 34 | >313 | 6.4 | >5 | 55.2 | > 100 | < 0.32 | 128 | > 300 | > 264 | 20 | >10 | Ratio CC50/IC50 [22]: 5.7; Ratio CC50/IC50 [23]: 177 |
| Nc1ncc(F)c2c1ncn2[C@@H]1O[C@H](CO)[C@@H](O)[C@H]1O | – | – | – | – | – | – | – | – | – | – | – | – | – | – | – | – | – | – | – | – | EC50 [24]: 9.2 µM |

From ChEMBL document CHEMBL3351456, “Synthesis and antiviral activities of 3-deaza-3-fluoroaristeromycin and its 5' analogues” (Bioorg Med Chem, 2014)
